Molecules are shown by their SMILES.

The test system of one data set is KB cells. The data set can be described thus: Cell cycle analysis by flow cytometry. Conditions: 6 or 24 h, PXL 0.02 µM, 4 0.5 µM, 8 2 µM. In kind it is cell-based, human.
The test system of the next data set is KB-VIN cells. Kind of data set: Cell cycle analysis by flow cytometry. The settings on record: 6 or 24 h, PXL 3 µM, 4 0.5 µM, 8 2 µM. The data set is classed as cell-based, human.
The test system of data set [1] is PC-3 cells. Kind of data set: Cell cycle analysis by flow cytometry. The data set is classed as cell-based, human. Conditions: 2 µM, 24 h.
Data set [2] has as its system PC-3 cells. The data set can be described thus: Immunofluorescence staining of microtubules in PC-3 cells. In kind it is cell-based, human. Conditions: PC-3, 24 h.
Data set [3] relates to KB (epidermoid carcinoma of the nasopharynx). The settings on record: read-out: IC50 KB; SRB; compound marked 'See ref [15]'; cited from earlier work.
Data set [4] relates to KB-VIN (P-gp-overexpressing MDR subline of KB). Conditions: read-out: IC50 KB-VIN; SRB; compound marked 'See ref [15]'; cited from earlier work.
The test system of the next data set is PC-3 (prostate cancer). The settings on record: read-out: IC50 PC-3; SRB; compound marked 'See ref [15]'; cited from earlier work.
For a further data set, the system named is A549 (lung carcinoma). The settings on record: read-out: IC50 A549; SRB; compound marked 'See ref [15]'; cited from earlier work.
The test system of data set [5] is HepG2 (hepatocellular carcinoma). The settings on record: read-out: IC50 Hep-G2; SRB; compound marked 'See ref [15]'; cited from earlier work.
The subject of data set [6] is HCT-8 (human colon adenocarcinoma). The settings on record: read-out: IC50 HCT-8; SRB; compound marked 'See ref [15]'; cited from earlier work.
Data set [7] concerns MDA-MB-231 (triple-negative breast cancer). Conditions: read-out: IC50 MDA-MB-231; SRB; compound marked 'See ref [15]'; cited from earlier work.
The test system of data set [8] is SK-BR-3 (HER2-overexpressing breast cancer). Conditions: read-out: IC50 SK-BR3; SRB; compound marked 'See ref [15]'; cited from earlier work.
Data set [9] concerns the target MCF-7 (estrogen-receptor-positive, HER2-negative breast cancer). Conditions: read-out: IC50 MCF-7; SRB; compound marked 'See ref [15]'; cited from earlier work.
Data set [10] deals with ZR-75-1 (estrogen-receptor-positive, HER2-positive breast cancer). The settings on record: read-out: IC50 ZR-75-1; SRB; compound marked 'See ref [15]'; cited from earlier work.

With `CCC1=C(O)c2c(oc(-c3csc4ccccc34)cc2=O)C(CC)(CC)C1=O` [Compound 4, 2-(benzo[b]thiophene-3′-yl)-6,8,8-triethyldesmosdumotin B], the “effect on cell cycle distribution” value is “Accumulation of G2/M phase as well as S phase cells” with KB cells, “Accumulation of G2/M phase as well as S phase cells” with KB-VIN cells and “efficiently induced accumulation of G2/M phase cells” in the data set on PC-3 cells [1]. The microtubule morphology result with PC-3 cells [2] (equitoxic concentrations: 0.2 µM 4, 0.2 µM CA-4, 5 µM VIN, 0.2 µM PXL) was “induced depolymerization of cytosolic microtubules as well monopolar (arrow heads) or multipolar spindle formations in the G2/M-phase”. In the data set on PC-3 cells [2] (compounds 0.2, 2 or 20 µM, CA-4 0.002 or 20 µM), the “dose-dependent effects on microtubule morphology” value is “Dose-dependent disruption of both interphase microtubules and spindles”. The IC50 in [3] is 0.08 µM; in data set [4] it was 0.07 µM; in the data set with PC-3 (prostate cancer), 0.16 µM; with A549 (lung carcinoma) it was 0.06 µM; in data set [5], 0.13 µM; in data set [6] it was 0.13 µM. The concentration for half-maximal inhibition (IC50) is 0.7 µM in [7], 0.5 µM in data set [8], 0.72 µM in data set [9] and 0.85 µM in data set [10].

(Values after PMC4394749 (Journal of medicinal chemistry, 2015).)
